Entries after “also recorded” stand apart in the source; their conditions may differ. Where two headings read alike, the source gives them in different places.
Experiments:
female FVB mice = test: Dose escalation and 14-day MTD study in female FVB mice; assay type: in vivo; details: for hematology parameters / survival: repeat dose study; for clinical chemistry: all treatment groups; for single-dose level at which all animals survived to 48 h: female, FVB, mouse, in vivo; for survival: high dose 75 mg/kg
Experimental: In Vivo Range Finding Toxicity Studies in Mice and Rats: Dose escalation and 14-day MTD study of SRI-011381 and SRI-011382 in female FVB mice: The objectives of this study were to determine the maximum tolerated dose (MTD) and a no observable adverse effect level (NOAEL) in female FVB mice following a daily oral dose administration for 14 consecutive days. An initial dose escalation was performed with intraperitoneal (ip), oral (po), and intravenous (iv) dose routes for a single-dose MTD of SRI-011381 and SRI-011382.
Subsequently, three dose levels (10, 30, and 75 mg/kg) and a vehicle control group were used in the 14-day oral dose administration to determine the MTD and NOAEL based on changes in bodyweight, clinical observations, serum chemistry, hematology and gross organ physiology in 5 female mice per treatment group.
The objectives of this study were to determine maximum tolerated dose (MTD) and a no observable adverse effect level (NOAEL) in female FVB mice following a daily oral dose administration for 14 consecutive days. After a dose escalation single dose study with doses up to 400 mg/kg, three dose levels were selected for the repeat dose study, 10, 30 and 75 mg/kg, administered […]. The MTD is the maximum dose administered that results in less than 10% body weight loss compared to controls and no other dose limiting adverse effects (e.g. clinical pathology).

primary rat hepatocytes = test: Cytotoxicity in primary rat hepatocytes; assay type: cell-based; details: 20 h
Experimental: In Vitro Cytotoxicity: The cytotoxicity of SRI-011381 was determined in primary rat hepatocytes and in VERO cells.
Rat hepatocytes were isolated by collagenase perfusion and allowed to form a monolayer overnight. The test compounds were added to the cells in 5 concentrations up to 250 μM. Cells were incubated with the test article for 20 h and then toxicity determined by the MTT cytotoxicity screen. Toxicity was evaluated against the vehicle control (DMSO) and a positive control, amitriptylin, was included with each experiment.

[1] = Single-dose pharmacokinetics in female FVB mice; assay type: in vivo, mouse; details: for Kp at 4 h: read-out: Brain to Plasma concentration ratio at 4 h
Experimental: Pharmacokinetics of SRI-011381 after single intravenous, intraperitoneal, or oral administration in female FVB mice: The objective of this study was to determine the single-dose pharmacokinetics of SRI-011381 in plasma and brain. Female FVB/NJ mice were administered the test article by intravenous (iv, 10 mg/kg), intraperitoneal (ip, 30 mg/kg), and oral gavage (po, 50 mg/kg) dose routes. The compound was formulated in 10% DMSO:15% Solutol:75% sterile water. Plasma and brain were collected at various time points up to 24 h and analyzed by LC/MS for determination of SRI-011381 levels. FIGS. 7A and 7B summarize SRI-011381 levels in plasma and brain, and Tables 4 and 5 list the results of the pharmacokinetic analysis.

hippocampal neurons = test: Aβ-induced neuritic dystrophy in primary hippocampal neurons; assay type: cell-based, mouse; details: for average numbers of dystrophic neurites per neuron: 21-22 DIV
Experimental: Primary hippocampal neurons isolated from E16 CF1 embryos were aged for 6-7 days or 21-22 days, then challenged with 5 μM oligomeric Aβ in the presence or absence of compounds, and assayed for neurotoxicity (cell survival as above) or neuritic dystrophy, respectively. For quantification of neuritic dystrophy, fixed cells were immune-stained with a MAP-2 monoclonal antibody to label dendrites.
Primary hippocampal neurons were isolated from E16 CF1 embryos. Twenty-four-well culture plates were coated with 10 μg/ml poly-L-lysine. Cells were seeded overnight at a density of 30,000 cells/well in DMEM/F-12 medium supplemented with 10% FBS and penicillin/streptomycin, and subsequently maintained in Neurobasal medium containing 2% B27 supplement. Cells were aged for 6-7 days or 21-22 days, then challenged with 5 μM Aβ in the presence or absence of compounds, and assayed for neurotoxicity or neuritic dystrophy, respectively. Cells were treated for 72 h for neurotoxicity assay and 48 h for neuritic dystrophy assay. At the end of treatment, an equal volume of 4% PFA was added, plates incubated at room temperature for 15 min and then washed three times with DPBS. Cells were kept in the last wash of DPBS at 4° C. until being counted or stained.
For quantification of neuritic dystrophy, fixed cells were immunostained with a MAP-2 monoclonal antibody (Sigma-Aldrich). […] MAP2 positive dendrites were observed under an inverted fluorescence microscope (Olympus). […] To quantify neurite curvature, an established method was modified for assessment of neurite curvature. Neurite tracks were digitized and approximated by a series of connected line segments using ImageJ (NIH). The angle of each segment was determined using a Sigmaplot macro, and the results were averaged to give the ‘mean differential curvature’. This parameter reflects the degree of neurite curvature with an increasing value indicating increased curvature. Neurite counting and quantification were performed in randomly selected fields (5 fields/well). All quantitative assessments were done by investigators blinded with respect to treatment conditions.

[2] = female, FVB/NJ, mouse, brain, ip, 30 mg/kg
[3] = female, FVB/NJ, mouse, brain, iv, 10 mg/kg
[4] = female, FVB/NJ, mouse, brain, po, 50 mg/kg
[5] = female, FVB/NJ, mouse, plasma, ip, 30 mg/kg
[6] = female, FVB/NJ, mouse, plasma, iv, 10 mg/kg
[7] = female, FVB/NJ, mouse, plasma, po, 50 mg/kg

SMILES: O=C(NC1CCCCC1)N(Cc1ccccc1)CC1CCNCC1 [SRI-011381, 1-Benzyl-3-cyclohexyl-1-(piperidin-4-ylmethyl)urea]
- hematology parameters (female FVB mice; 10 mg/kg): no significant differences relative to controls
- absolute WBCs (female FVB mice; 30 mg/kg, 14 days): significantly decreased
- hematology parameters (female FVB mice; 30 mg/kg): minor changes in WBCs only
- hematology parameters (RBCs, hematocrit, hemoglobin) (female FVB mice; 75 mg/kg (high dose), 14 days): reductions in red blood cells (RBCs), hematocrit and hemoglobin; also recorded: RBCs, hematocrit and hemoglobin were all significantly reduced; also recorded: significantly reduced hematocrit, hemoglobin, RBCs, and WBCs
- clinical signs (female FVB mice; 75 mg/kg, 14 days): hunched posture, hypoactivity and ruffled fur
- neutrophils (% and absolute) (female FVB mice; 75 mg/kg, 14 days): increased
- reticulocytes (female FVB mice; 75 mg/kg, 14 days): significantly elevated
- body weight or body weight change (female FVB mice; 10, 30, 75 mg/kg, 14 days, relative to controls): no significant differences in body weight or body weight change
- lymphocytes (% and absolute) (female FVB mice; 30 and 75 mg/kg, 14 days): decreased
- clinical chemistry (female FVB mice; 14 days): no significant changes in clinical chemistry
- single-dose level at which all animals survived to 48 h (female FVB mice; ip): up to 100 mg/kg
- single-dose level at which all animals survived to 48 h (female FVB mice; iv): ≤ 15 mg/kg
- single-dose level at which all animals survived to 48 h (female FVB mice; po): ≤ 200 mg/kg
- survival (female FVB mice): survived to the scheduled sacrifice on Day 15
- clinical observations (female FVB mice; two lower dose groups (10, 30 mg/kg), 14 days): appeared normal
- LD50 (primary rat hepatocytes; rat hepatocytes, MTT): greater than 250 μM
- Kp ([1]; female, FVB/NJ, mouse, brain, intraperitoneal, time points after about 0.5 h (iv) and about 1.5 h (po and ip), read-out: brain-to-plasma concentration ratio): > 0.5
- Cmax [1, 2]: 348 ± 33 ng/mL
- Tmax [1, 2]: 15 min
- Kp at 4 h [1, 2]: 1.65
- Cmax [1, 3]: 231 ± 106 ng/mL
- Tmax [1, 3]: 15 min
- Kp at 4 h [1, 3]: 12.5
- Cmax [1, 4]: 157 ± 16 ng/mL
- Tmax [1, 4]: 60 min
- Kp at 4 h ([1]; female, FVB/NJ, mouse, brain, po, 50 mg/kg, p.o.): 0.89
- Kp ([1]; female, FVB/NJ, mouse, brain/plasma, ip, 30 mg/kg, values at the brain T, read-out: Brain-to-plasma ratio): 0.07
- Kp ([1]; female, FVB/NJ, mouse, brain/plasma, iv, 10 mg/kg, values at the brain T, read-out: Brain-to-plasma ratio): 0.28
- Kp ([1]; female, FVB/NJ, mouse, brain/plasma, po, 50 mg/kg, values at the brain T, read-out: Brain-to-plasma ratio): 0.19
- clearance ([1]; female, FVB/NJ, mouse, plasma, intraperitoneal, extravascular estimates (ip and po) based on F, read-out: Cl (converted)): ~150 mL/min/kg
- Vd ([1]; female, FVB/NJ, mouse, plasma, intraperitoneal, extravascular estimates (ip and po) based on F, read-out: apparent volume of distribution V): 8 to 13 L/kg
- half-life ([1]; female, FVB/NJ, mouse, plasma, intravenous, intraperitoneal, oral, read-out: elimination half-life): < 60 min
- AUC(0-inf) [1, 5]: 4160 ng·h/mL
- AUC(0-t) [1, 5]: 4110 ± 214 ng·h/mL
- Cmax [1, 5]: 6810 ± 720 ng/mL
- Tmax [1, 5]: 4.98 min
- half-life ([1]; female, FVB/NJ, mouse, plasma, ip, 30 mg/kg, read-out: t1/2 (converted)): 35.4 min
- AUC(0-inf) [1, 6]: 1080 ng·h/mL
- AUC(0-t) [1, 6]: 1070 ± 129 ng·h/mL
- Cmax [1, 6]: 1170 ± 415 ng/mL
- Tmax [1, 6]: 4.98 min
- clearance ([1]; female, FVB/NJ, mouse, plasma, iv, 10 mg/kg, read-out: CI (clearance) (converted)): 154 mL/min/kg
- half-life ([1]; female, FVB/NJ, mouse, plasma, iv, 10 mg/kg, read-out: t1/2 (converted)): 34.2 min
- AUC(0-inf) [1, 7]: 2600 ng·h/mL
- AUC(0-t) [1, 7]: 2600 ± 374 ng·h/mL
- Cmax [1, 7]: 2950 ± 1240 ng/mL
- Tmax [1, 7]: 10 min
- bioavailability ([1]; female, FVB/NJ, mouse, plasma, po, 50 mg/kg, plasma, po, 50 mg/kg, read-out: F (oral bioavailability)): ~50%
- half-life ([1]; female, FVB/NJ, mouse, plasma, po, 50 mg/kg, read-out: t1/2 (converted)): 58.2 min
- AUC(0-t) ([1]; female, FVB/NJ, mouse, brain, ip, 30 mg/kg, AUC from 0.25 to 4 h): 740 ± 32 ng·h/mL
- AUC(0-t) ([1]; female, FVB/NJ, mouse, brain, iv, 10 mg/kg, AUC from 0.25 to 4 h): 738 ± 89 ng·h/mL
- AUC(0-t) ([1]; female, FVB/NJ, mouse, brain, po, 50 mg/kg, AUC from 0.5 to 4 h): 416 ± 33 ng·h/mL
- CI (clearance) ([1]; plasma, ip, 30 mg/kg): 154.3 mL/min/kg
- F ([1]; plasma, ip, 30 mg/kg): 128%
- V ([1]; plasma, ip, 30 mg/kg): 7.875 L/kg
- F ([1]; plasma, iv, 10 mg/kg): 100%
- V ([1]; plasma, iv, 10 mg/kg): 7.669 L/kg
- V ([1]; plasma, po, 50 mg/kg): 13.012 L/kg
- average numbers of dystrophic neurites per neuron (hippocampal neurons; 5 μM Aβ, 48 h): markedly reduced

SMILES: O=C(NC1CCCCC1)N(C/C=C/c1ccc(F)cc1)CC1CCNCC1 [SRI-011382]
- hematology parameters (female FVB mice; 30 mg/kg): reduced hematocrit, hemoglobin, RBCs, and WBCs
- clinical signs (female FVB mice; 75 mg/kg, 14 days): hunched posture, hypoactivity and ruffled fur
- clinical chemistry (female FVB mice; 14 days): no significant changes
- survival (female FVB mice): lethality to the entire treatment group
- cytotoxicity in rat hepatocytes (primary rat hepatocytes; rat, 50 μM): cytotoxic at 50 μM
- Aβ-induced increase in neurite curvature (mean differential curvature) (hippocampal neurons): prevented
- Aβ-induced tortuosity (hippocampal neurons; 3 μM compound, 5 μM Aβ, 48 h): markedly reduced
- average numbers of dystrophic neurites per neuron (hippocampal neurons; 5 μM Aβ, 48 h): markedly reduced

From US9796674B2, “Benzyl urea derivatives for activating TGF-beta signaling” (THE BOARD OF TRUSTEES OF THE LELAND STANFORD JUNIOR …, priority 2013, dated 2017)
